Assay results as given in patent US20240327415A1, “Multicomponent Complexes, Including Salts, Crystalline Forms, and Hydrates and Solvates of ENT1 Inhibitors” (iTeos Belgium SA, priority 2023, published 2024).
Marks after values point to notes of the source that are not given here. One block for each compound: values may come before it.

Experiments:
[1] = salt screen, XRPD of damp, dried and 40° C./75% RH stored samples (Salt Preparation Methods 1 and 2); format: physicochemical; parameters: key: A = amorphous; PC = poorly crystalline; *= predominantly; 1 = Form 1 Compound 1 benzoate; 2 = Form 2 Compound 1 benzoate; 3 = Form 3 Compound 1 benzoate; settings: Benzoic acid, 1 equiv.
Protocol: (§1) Salt Preparation Method 1: Approximately 25 mg of Compound 1 (free base) was weighed out into 1.5 mL screw-cap vials and a stirrer bar was added. For solid counterions, the appropriate amount of acid (1.0 or 2.0 equiv.) was weighed into separate 1.5 mL screw-cap vials. 100 μL of the appropriate solvent system was added to both the Compound 1 and the solid counterions. Stock solutions of liquid counterions were prepared, such that 100 μL contained 1.0 or 2.0 equiv. of acid. See counterion and solvent lists in Table 60 and Table 61 respectively.
(§2) The samples were stirred at 40° C. for 5-10 min and then the acid solutions were added to Compound 1, rinsing out the transfer vial with a further 50 μL of solvent. […] Experiments were temperature cycled between 40° C. and 5° C. (1 h hold; 0.1° C./min ramp/cool) for ca. 24-68 h. Anti-solvent addition (ASA) was carried out to slurries at 5° C. then experiments were heated to 30° C. over 1 h. ASA was carried out at 30° C. or 40° C. where clear solutions or gums were observed.
(§3) Temperature cycling was then continued for ca. 16-69 h, followed by further ASA and temperature cycling if required. Material was isolated at 5° C. and analyzed damp by XRPD. All isolated material was dried under vacuum at ca. 40° C. for ca. 17-91 h then re-analyzed by XRPD. The XRPD plate was stored at 40° C./75% RH for 24-48 h and then samples re-analyzed. Solutions were stored uncapped at ambient temperature to evaporate. Any residual solids were analyzed by XRPD.
(§4) Salt Preparation Method 2: The general procedure adopted in preparing the potential salts is outlined below. A known mass of Compound 1 (free base) and a known volume of the appropriate solvent system were added to 20 mL scintillation vials. The required mol. equiv. of the appropriate counterions were added to the vials as solutions or slurries in the corresponding solvent system.
(§5) The experiments were stirred at 40° C. for ca. 1 h, and then temperature cycled between 40° C. and 5° C. with 0.1° C./min ramp and 1 h hold between each step. Anti-solvent additions and subsequent slurrying at 5° C. were employed in order to facilitate crystallization. […] The damp and dried solids were subsampled and analyzed by XRPD. Where applicable, the dried solids were stored at 40° C./75% RH for 24-48 h in order to improve the crystallinity and/or facilitate solid form conversion to the desired form.

[2] = as above; format: physicochemical; parameters: key: A = amorphous; Evap. = isolated via evaporation
Protocol: as §1, §2, §3, §4, §5

[3] = as above; format: physicochemical; parameters: key to XRPD Analysis Damp/Dry: A = amorphous; Evap. = isolated via evaporation
Protocol: as §1, §2, §3, §4, §5

ENT1 = target: T1, ENT1 (Homo sapiens, UniProt Q99808); assay: ENT1 activity: intracellular uptake of 5-Ethynyl-Uridine (5EU) in whole blood, CD19 positive cells, flow cytometry; format: cell-based; settings: 5EU 60 min at 37° C.
T1 construct: endogenous in cells; host or cells: CD19-positive cells (B cells) in whole blood from healthy donors
T1 sequence (Q99808 1-456): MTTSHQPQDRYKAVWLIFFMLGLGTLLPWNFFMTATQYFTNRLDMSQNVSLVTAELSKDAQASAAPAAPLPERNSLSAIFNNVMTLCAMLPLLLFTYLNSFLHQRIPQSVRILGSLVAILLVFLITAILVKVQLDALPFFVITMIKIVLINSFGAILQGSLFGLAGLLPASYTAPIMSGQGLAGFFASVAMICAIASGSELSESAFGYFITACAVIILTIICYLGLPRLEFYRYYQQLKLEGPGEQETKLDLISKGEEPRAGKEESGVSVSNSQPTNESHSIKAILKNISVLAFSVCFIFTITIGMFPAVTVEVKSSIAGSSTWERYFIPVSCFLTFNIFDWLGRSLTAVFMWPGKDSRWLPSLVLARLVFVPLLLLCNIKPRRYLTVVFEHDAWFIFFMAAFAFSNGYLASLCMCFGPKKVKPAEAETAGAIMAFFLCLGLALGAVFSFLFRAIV
Protocol: Example 20-ENT1 Activity of Crystalline Form 2 Compound 1 di(hydrogen sulfate) trihydrate compared to Compound 1 (free base)-Initial and after Six-Month Storage: (1) Initial time: Whole blood from 8 healthy donors was incubated with 5-Ethynyl-Uridine (5EU, CAS #: 69075-42-9, Jena Bioscience) for 60 min at 37° C., in the absence or presence of freshly suspended 1 μM Compound 1 (free base) or 1 μM Form 2 Compound 1 di(hydrogen sulfate) trihydrate. Intracellular uptake of 5EU through ENT1 transporters was assessed by standard flow cytometry and ENT1 activity was determined.
In FIG. 101, the data are expressed as % of ENT1 activity in untreated CD19 cells, arbitrary set at 100%, and are the means±SD of three independent experiments. Statistical analysis was performed using one-way analysis of variance (ANOVA) followed by Tukey's post hoc analysis with Prism 10.1.2 software (GraphPad Software). *: p<0.0001 vs. untreated B cells; ns: non-significant.
(2) Six months: Compound stability was evaluated on suspended solutions of Compound 1 (free base) or Form 2 Compound 1 di(hydrogen sulfate) trihydrate that were stored at −20° C. for 6 months. On the day of the experiment, whole blood from 3 healthy donors was incubated with 5-Ethynyl-Uridine (5EU, CAS #: 69075-42-9, Jena Bioscience) for 60 min at 37° C., in the absence or presence of either 1 μM Compound 1 (free base) or 1 μM Form 2 Compound 1 di(hydrogen sulfate) trihydrate of 6-month-old solutions. Intracellular uptake of 5EU through ENT1 transporters was assessed by standard flow cytometry and ENT1 activity was determined.
In FIG. 102, the data are expressed as % of ENT1 activity in untreated CD19 cells, arbitrary set at 100%, and are the means±SD. Statistical analysis was performed using two-way analysis of variance (ANOVA) with Prism 10.1.2 software (GraphPad Software). *: p<0.05 vs. untreated B cells; **: p<0.01 vs. untreated B cells; ns: non-significant.

[4] = salt screen, XRPD of damp, dried and 40° C./75% RH stored samples (Salt Preparation Methods 1 and 2); format: physicochemical; parameters: key: A = amorphous; 1 = Form 1 Compound 1 hydrogen chloride; PC = poorly crystalline; settings: AS Heptane
Protocol: as §1, §2, §3, §4, §5

[5] = as above; format: physicochemical; parameters: key: A = amorphous; PC = poorly crystalline; 1 = Form 1 Compound 1 hydrogen phosphate; 2 = Form 2 Compound 1 hydrogen phosphate; 3 = Form 3 Compound 1 hydrogen phosphate; 4 = Form 4 Compound 1 hydrogen phosphate; settings: Phosphoric acid, 1 equiv.
Protocol: as §1, §2, §3, §4, §5

[6] = hydration mapping studies (slurries at different water activities, Example 17); format: physicochemical; parameters: key to XRPD, hydration studies - dried samples: A: amorphous; Crystalline Form 10 mono(hydrogen sulfate)
Protocol: Example 17—Hydration Mapping Studies-Crystalline Form 2 Compound 1 di(hydrogen sulfate) trihydrate, Crystalline Form 3 Compound 1 di(hydrogen sulfate), and Blend: The effects of different water activities on crystalline Form 2 Compound 1 di(hydrogen sulfate) trihydrate, crystalline Form 3 Compound 1 di(hydrogen sulfate) and a blend of the two were investigated. The “blend” was prepared by mixing crystalline Form 2 Compound 1 di(hydrogen sulfate) trihydrate and crystalline Form 3 Compound 1 di(hydrogen sulfate) in a 1:1 ratio. To the vials containing the required solid material, the appropriate solvent system was added to form slurries. The slurry samples were stirred at the required temperatures during and after the solvent addition. Where dissolution was observed post-solvent addition, additional solid was added to re-saturate the sample. After stirring at the required temperature for 48 hours, the residual solids left in the vials were analyzed by XRPD to assess the solid forms. The analyzed samples were then dried on the XRPD plate under reduced pressure at 40° C. for 24 hr. The dried samples were analyzed by XRPD.

[7] = Benzoic acid, 1 equiv., Ethanol, AS Heptane
[8] = Benzoic acid, 1 equiv., THF, AS Heptane
[9] = Benzoic acid, 1 equiv., MEK, AS Heptane
[10] = Hydrochloric acid, 2 equiv., Acetonitrile, AS tBME
[11] = Hydrochloric acid, 2 equiv., Ethyl acetate, AS Heptane
[12] = Hydrochloric acid, 2 equiv., IPA:H2O (75:25% v/v), AS tBME
[13] = Hydrochloric acid, 2 equiv., MEK, AS Heptane
[14] = Hydrochloric acid, 2 equiv., THF, AS Heptane
[15] = Hydrochloric acid, 2 equiv., Ethanol*
[16] = Phosphoric acid, 1 equiv., Acetonitrile, AS tBME
[17] = Phosphoric acid, 1 equiv., IPA:H2O (75:25% v/v), AS tBME
[18] = Phosphoric acid, 1 equiv., Ethyl acetate

Compound: O=C(O)c1ccccc1 [Benzoic acid, 1 equiv.]
- XRPD Analysis 40° C. 75% RH ([1]; Ethyl acetate, AS Heptane): 1
- XRPD Analysis Damp ([1]; Ethyl acetate, AS Heptane): 1
- XRPD Analysis Dry ([1]; Ethyl acetate, AS Heptane): 1
- XRPD Analysis Damp ([1]; IPA:H2O (75:25% v/v), AS tBME): 2
- XRPD Analysis Dry ([1]; IPA:H2O (75:25% v/v), AS tBME): 2
- XRPD Analysis 40° C. 75% RH ([1]; THF, AS Heptane): 3
- XRPD Analysis Dry [2, 7]: A
- XRPD Analysis Dry [2, 8]: A
- XRPD Analysis Damp/Dry ([3]; Benzoic acid, 1 equiv., Acetonitrile, AS BME, (evap.)): A (evap.)
- XRPD Analysis 40° C. 75% RH [3, 7]: 2 + 3
- XRPD Analysis Damp [3, 7]: 2*
- XRPD Analysis 40° C. 75% RH ([3]; Benzoic acid, 1 equiv., IPA:H2O (75:25% v/v), AS tBME): 2 + 3
- XRPD Analysis 40° C. 75% RH [3, 9]: 1 + 3
- XRPD Analysis Damp [3, 9]: 1*
- XRPD Analysis Dry [3, 9]: 1, PC
- XRPD Analysis Damp [3, 8]: 1 + 2

Compound: COc1cc(C(=O)O[C@@H]2CCCOc3cc(cc(OC)c3OC)C(=O)NCCCN3CCCN(CC2)CC3)cc(OC)c1OC [Compound 1, (16R)-9,10-dimethoxy-6-oxo-12-oxa-1,5,19-triazatricyclo[17.3.2.1^7,11]pentacosa-7(25), 8,10-trien-16-yl 3,4,5-trimethoxybenzoate]
- decrease of ENT1 activity compared to untreated CD19 positive cells (ENT1; 1 μM of solutions stored at −20° C. for 6 months, whole blood from 3 healthy donors): No significant effect
- decrease of ENT1 activity compared to untreated CD19 positive cells (ENT1; 1 μM, freshly suspended, whole blood from 8 healthy donors): 49.8%

Compound: Cl [Hydrochloric acid, 2 equiv.]
- XRPD Analysis 40° C. 75% RH [2, 10]: A
- XRPD Analysis Damp [2, 10]: A
- XRPD Analysis Dry [2, 10]: A
- XRPD Analysis 40° C. 75% RH [2, 11]: A
- XRPD Analysis Damp [2, 11]: A
- XRPD Analysis Dry [2, 11]: A
- XRPD Analysis 40° C. 75% RH [2, 12]: A
- XRPD Analysis Damp [2, 12]: A
- XRPD Analysis Dry [2, 12]: A
- XRPD Analysis 40° C. 75% RH [2, 13]: A
- XRPD Analysis Damp [2, 13]: A
- XRPD Analysis Dry [2, 13]: A
- XRPD Analysis 40° C. 75% RH [2, 14]: A
- XRPD Analysis Damp [2, 14]: A
- XRPD Analysis Dry [2, 14]: A
- XRPD Analysis Damp [4, 15]: 1
- XRPD Analysis Dry [4, 15]: 1
- XRPD Analysis 40° C. 75% RH ([3]; Hydrochloric acid, 2 equiv., Ethanol*, AS Heptane): 1 (PC)

- XRPD Analysis Damp [2, 16]: A
- XRPD Analysis Dry [2, 16]: A
- XRPD Analysis 40° C. 75% RH [2, 17]: A
- XRPD Analysis Damp [2, 17]: A
- XRPD Analysis Dry [2, 17]: A
- XRPD Analysis Damp [4, 18]: PC
- XRPD Analysis Dry [4, 18]: PC
- XRPD Analysis 40° C. 75% RH ([5]; Acetonitrile, AS tBME): 4
- XRPD Analysis 40° C. 75% RH ([5]; Ethanol, AS Heptane): 1
- XRPD Analysis Damp ([5]; Ethanol, AS Heptane): 1
- XRPD Analysis Dry ([5]; Ethanol, AS Heptane): 1
- XRPD Analysis 40° C. 75% RH ([5]; Ethyl acetate, AS Heptane): 2
- XRPD Analysis 40° C. 75% RH ([5]; MEK, AS Heptane): 2
- XRPD Analysis Damp ([5]; MEK, AS Heptane): 3
- XRPD Analysis Dry ([5]; MEK, AS Heptane): 2
- XRPD Analysis 40° C. 75% RH ([5]; THF, AS Heptane): 1
- XRPD Analysis Damp ([5]; THF, AS Heptane): 1
- XRPD Analysis Dry ([5]; THF, AS Heptane): 1
Compound: O=P(O)(O)O [Phosphoric acid, 1 equiv.]

Compound: COc1cc(C(=O)O[C@@H]2CCCOc3cc(cc(OC)c3OC)C(=O)NCCCN3CCCN(CC2)CC3)cc(OC)c1OC.O=S(=O)(O)O.O=S(=O)(O)O [blended material]
- XRPD, hydration studies - dried samples ([6]; 50° C., Acetonitrile:Water, aw 0.9, dried 40° C. reduced pressure 24 hr): M10
- solid form by XRPD after slurrying ([6]; acetonitrile:water solvent systems with aw≤0.5, 48 hours): some crystalline Form 3 Compound 1 di(hydrogen sulfate) was retained
- solid form by XRPD after slurrying ([6]; acetonitrile:water systems with aw>0.5, 48 hours): Crystalline Form 2 Compound 1 di(hydrogen sulfate) trihydrate was observed
- solid form by XRPD after slurrying ([6]; all the 2-propanol:water solvent systems, 48 hours): Crystalline Form 2 Compound 1 di(hydrogen sulfate) trihydrate was also observed
